Measured values: patent US8541405B2, “Methods for the preparation of Ivabradine sulfate and form I crystal thereof” (Jiangsu Hengrui Medicine Co., Ltd., priority 2009, dated 2013)
Structures can show the parent of a compound that is named as a salt.

Experiments:
[1] = Stability test of crystal samples placed open in the air (illumination, heating, humidity), HPLC analysis; format: physicochemical; details: for HPLC analysis result, 60° C.: heating 60° C.; for HPLC analysis result, 60° C. / HPLC analysis result, RH90% / HPLC analysis result, Light: open in air; for HPLC analysis result, RH90%: humidity RH 90%; for HPLC analysis result, Light: illumination 4500 Lux
Excerpt: The stability investigation of different Ivabradine hydrochloride crystal form: three different solvents crystallization of samples were obtained in turn according to the method of example 4 except that Ivabradine sulfate is substituted with Ivabradine hydrochloride and ethanol is substituted with acetonitrile, ethyl acetate, acetone.
Moreover, α-form crystal samples can be obtained using toluene, N-methyl pyrrole as crystallization solvents according to the method disclosed in CN1583341A.
The four samples obtained above and the form I crystal of Ivabradine sulfate prepared in example 1 were placed opening in the air to test the stability in various conditions including illumination (4500 Lux), heating (60° C.), humidity (RH 90%).

[2] = pH of the Ivabradine sulfate aqueous solution; format: physicochemical; details: C=1%
Method: (§1) 4.3 g of […] was dissolved in 100 ml of acetone, then 30 ml of acetone containing 1 g of sulfuric acid was added. The obtained mixture was stirred and white crystals were precipitated from the reaction solution. The resulting precipitate was collected by filtration, washed with acetone and then dried at 60° C. in vacuum for 3 hours to obtain 4.8 g of Ivabradine sulfate. Melting point was determined by capillary crystalline approach at 156˜158° C. Water content is 0.8%. The pH of the Ivabradine sulfate aqueous is about 1.8 (C=1%). Yield: 90.5%.
as §1, with “containing 0.4” for “containing 1”, “obtain 1.2” for “obtain 4.8”, “Yield: 55.5%. It is form I crystal of Ivabradine sulfate judged by X-ray and DSC patterns.” for “Yield: 90.5%.”

SMILES | HPLC analysis result, 60° C. ([1]; Time 0 day, hydrochloride) | HPLC analysis result, 60° C. ([1]; Time 5 days, hydrochloride) | HPLC analysis result, 60° C. ([1]; Time 10 days, hydrochloride) | HPLC analysis result, RH90% ([1]; Time 0 day, hydrochloride) | HPLC analysis result, RH90% ([1]; Time 5 days, hydrochloride) | HPLC analysis result, RH90% ([1]; Time 10 days, hydrochloride) | HPLC analysis result, Light ([1]; Time 0 day, hydrochloride) | HPLC analysis result, Light ([1]; Time 5 days, hydrochloride) | HPLC analysis result, Light ([1]; Time 10 days, hydrochloride) | other results
COc1cc2c(cc1OC)CC(=O)N(CCCN(C)C[C@H]1Cc3cc(OC)c(OC)cc31)CC2 [Ivabradine hydrochloride 20080908, Ivabradine hydrochloride] | 99.56% | 98.74% | 99.04% | 99.56% | 99.03% | 98.61% | 99.56% | 97.45% | 94.91% | –
COc1cc2c(cc1OC)CC(=O)N(CCCN(C)C[C@H]1Cc3cc(OC)c(OC)cc31)CC2 [Ivabradine hydrochloride 20080911, Ivabradine hydrochloride] | 99.55% | 99.31% | 99.12% | 99.55% | 99.10% | 98.42% | 99.55% | 98.88% | 98.07% | –
COc1cc2c(cc1OC)CC(=O)N(CCCN(C)C[C@H]1Cc3cc(OC)c(OC)cc31)CC2 [Ivabradine hydrochloride 20080912, Ivabradine hydrochloride] | 99.57% | 99.36% | 99.05% | 99.57% | 99.20% | 98.91% | 99.57% | 99.29% | 98.87% | –
COc1cc2c(cc1OC)CC(=O)N(CCCN(C)C[C@H]1Cc3cc(OC)c(OC)cc31)CC2 [Ivabradine sulfate 20080618, Ivabradine hydrochloride] | 99.54% | 99.50% | 99.46% | 99.54% | 99.23% | 99.00% | 99.54% | 99.47% | 99.42% | –
COc1cc2c(cc1OC)CC(=O)N(CCCN(C)C[C@H]1Cc3cc(OC)c(OC)cc31)CC2 [Ivabradine sulfate 20080922, Ivabradine sulfate] | – | – | – | – | – | – | – | – | – | HPLC analysis result, 60° C. ([1]; Time 0 day): 99.46%; HPLC analysis result, 60° C. ([1]; Time 5 days): 99.42%; HPLC analysis result, 60° C. ([1]; Time 10 days): 99.40%; HPLC analysis result, RH90% ([1]; Time 0 day): 99.46%; HPLC analysis result, RH90% ([1]; Time 5 days): 99.28%; HPLC analysis result, RH90% ([1]; Time 10 days): 99.19%; HPLC analysis result, Light ([1]; Time 0 day): 99.46%; HPLC analysis result, Light ([1]; Time 5 days): 99.42%; HPLC analysis result, Light ([1]; Time 10 days): 99.39%; stability compared with the α-form crystal of Ivabradine hydrochloride ([1]; under high moisture conditions): more stable; stability compared with the α-form crystal of Ivabradine hydrochloride ([1]; under the light and heat condition): similar; stability compared with the polymorphism or mixed crystal of Ivabradine hydrochloride from acetonitrile, ethyl acetate, acetone ([1]; under various conditions): improved significantly; pH of the Ivabradine sulfate aqueous [2]: about 1.8
